Assay results reported in PMC3261883, “Structure of S. aureus HPPK and the Discovery of a New Substrate Site Inhibitor” (PLoS ONE, 2012).
Values after ≈ are worked out from the molar mass of the structure shown. Values joined by “and” are separate entries in the source; they are usually repeats but may differ in a detail not shown here. Identical values can stand only once. Like-named read-outs stand apart in the source and are kept apart here.

How the values were obtained:
E. coli = E. coli cell-based growth inhibition assays; conditions: data not shown
B. anthracis DHPS = conditions: co-crystallisation; cited from earlier work
SaHPPK [1] = assay: Differential scanning fluorimetry (DSF) assay for ligand binding; parameters: species or system Staphylococcus aureus; conditions: for increase in unfolding temperature (Tm): saturating ligand
Description: A 96-well plate containing solutions of 2–5 µM SaHPPK, 10× Sypro orange dye and 500 µM of test compound in buffer (50 mM HEPES (pH 8.0), 1% sorbitol, 2.0 mM DTT, 10 mM MgCl2) was heated from […] at a rate of 1.0 K min^−1. The fluorescence intensity was measured with excitation/emission wavelengths of 583/610 nm. Tm and ΔTm values were determined from the melting curves obtained.

[2] = Solubility estimated from ITC experiments; type: physicochemical; conditions: ITC buffer, estimated assuming 1:1 binding stoichiometry
SaHPPK [3] = biological target: T1, SaHPPK (Staphylococcus aureus, UniProt A0A0H3JXR3); assay: KinaseGlo luminescent biochemical assay of HPPK activity
T1 sequence (A0A0H3JXR3 entry or part of it): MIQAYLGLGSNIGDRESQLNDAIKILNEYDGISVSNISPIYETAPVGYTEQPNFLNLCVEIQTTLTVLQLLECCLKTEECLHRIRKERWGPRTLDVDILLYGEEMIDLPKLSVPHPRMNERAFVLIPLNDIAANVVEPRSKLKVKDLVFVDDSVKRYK

SaHPPK [4] = biological target: T1, SaHPPK; type: binding
SaHPPK [5] = biological target: T1, SaHPPK; assay: Surface plasmon resonance (SPR) with biotinylated SaHPPK on NeutrAvidin chip; type: binding
[6] = parameters: method as in PMID 17511860; conditions: in vivo mouse model; cited from earlier work
SaHPPK [7] = biological target: T1, SaHPPK; assay: biochemical; type: binding
EcHPPK = conditions: cited from earlier work
E. coli HPPK = conditions: read-out: Km for the E. coli enzyme; different assays; cited from earlier work
[8] = SPR steady-state, 293 K, ligand alone, read-out: K d SPR
[9] = ITC, 298 K, in the presence of 1 mM AMPCPP
[10] = ITC, 298 K, ligand alone, read-out: K d ITC
[11] = SPR, 1:1 kinetic interaction model
[12] = fluorescence-based methods, in the presence of Mg2+, read-out: binding affinity (K d) of EcHPPK
[13] = read-out: dissociation constant for EcHPPK
[14] = in the absence of Mg2+, data not shown

Nc1nc2nc(S)[nH]c2c(=O)[nH]1 [8-mercaptoguanine]
growth inhibition (E. coli): did not observe growth inhibition | binding and inhibition of B. anthracis DHPS (B. anthracis DHPS): bind to, but not inhibit | increase in Tm compared to apo (SaHPPK [1]; 500 µM ligand, 5 µM enzyme): 3.4 °C | solubility [2]: ~300 µM (≈ 55 µg/mL) | IC50 (SaHPPK [3]; HMDP 0.3 µM, ATP 0.2 µM, read-out: IC50 for inhibition of SaHPPK): 41 µM and ~41 µM | K d indicated by NMR exchange regime (SaHPPK [4]): low µM range | times more tightly bound than HMDP (SaHPPK [5]): ~10 times | Kd (SaHPPK [5]; SPR steady-state, 293 K, in the presence of 5 mM ATP, read-out: K d SPR): 8.1 ± 1.6 µM | Kd (SaHPPK [5]; [8]): 10.8 ± 0.4 µM | antiviral activity and toxicity [6]: Antiviral activity,without significant toxicity | N (binding stoichiometry) (SaHPPK [7]; [9]): 0.96±0.09 | TΔS (SaHPPK [7]; [9]): -10.4 ± 1.5 kcal/mol | ΔG (SaHPPK [7]; [9]): -6.8 ± 0.1 kcal/mol | ΔH (SaHPPK [7]; [9]): -17.2 ± 1.4 kcal/mol | Kd (SaHPPK [7]; ITC, 298 K, in the presence of 1 mM AMPCPP, read-out: K d ITC): 11.3 ± 2.3 µM | N (binding stoichiometry) (SaHPPK [7]; ITC, 298 K, ligand alone): 1.00±0.06 | TΔS (SaHPPK [7]; ITC, 298 K, ligand alone): -12.9 ± 3.5 kcal/mol | ΔG (SaHPPK [7]; ITC, 298 K, ligand alone): -6.7 ± 0.2 kcal/mol | ΔH (SaHPPK [7]; ITC, 298 K, ligand alone): -19.6 ± 3.4 kcal/mol | Kd (SaHPPK [7]; [10]): 12.8 ± 3.4 µM | ligand efficiency (SaHPPK [7]; K d ∼13 µM over 12 heavy atoms): 2.3 kJ/heavy atom | Kd (SaHPPK [7]; absence of cofactor, read-out: equilibrium dissociation constant Kd, summary value from ITC and SPR): ~13 µM and ~12 µM

Nc1ncnc2c1ncn2[C@@H]1O[C@H](COP(=O)(O)OP(=O)(O)O)[C@@H](O)[C@H]1O [ADP]
Kd (SaHPPK [5]; [8]): 760 ± 16 µM

Nc1ncnc2c1ncn2C1OC(COP(=O)(O)CP(=O)(O)OP(=O)(O)O)C(O)C1O (stereo not drawn) [AMPCPP, α,β-methylene adenosine 5′-triphosphate]
increase in unfolding temperature (Tm) (SaHPPK [1]): 11 °C | Kd (SaHPPK [5]; [8]): 7.7 ± 0.4 µM | k a (SaHPPK [5]; [11]): 8.8±1.3×10^4 M^−1 s^−1 | k d (SaHPPK [5]; [11]): 0.5 ± 0.1 s⁻¹ | Kd (SaHPPK [5]; SPR, from k d/k a ratio, read-out: K d from kinetic interaction model): 5.4 ± 0.3 µM | Kd (EcHPPK; [12]): 0.08 to 0.45 µM | Kd (EcHPPK; [13]): 0.45 µM | fold tighter binding than ATP (SaHPPK [7]; ITC affinity ratio): approximately 10 fold | N (binding stoichiometry) (SaHPPK [7]; ITC, 298 K, ligand alone): 1.06±0.12 | TΔS (SaHPPK [7]; ITC, 298 K, ligand alone): 1.3 ± 1.0 kcal/mol | ΔG (SaHPPK [7]; ITC, 298 K, ligand alone): -7.5 ± 0.2 kcal/mol | ΔH (SaHPPK [7]; ITC, 298 K, ligand alone): -6.3 ± 1.0 kcal/mol | Kd (SaHPPK [7]; [10]): 3.1 ± 1.2 µM | binding by ITC (SaHPPK [7]; [14]): no significant binding

Nc1ncnc2c1ncn2[C@@H]1O[C@H](COP(=O)(O)O)[C@@H](O)[C@H]1O [AMP]
Kd (SaHPPK [5]; [8]): 4900 ± 1100 µM

Nc1ncnc2c1ncn2[C@@H]1O[C@H](COP(=O)(O)OP(=O)(O)OP(=O)(O)O)[C@@H](O)[C@H]1O [ATP]
increase in unfolding temperature (Tm) (SaHPPK [1]): 6 °C | Km (SaHPPK [3]; KinaseGlo assay, read-out: Km app): 10.8 ± 2.5 µM | Kd (SaHPPK [5]; [8]): ~45 µM and 45 µM | Kd (EcHPPK; [12]): 2.6 to 4.5 µM | Kd (EcHPPK; [13]): 2.6 µM | N (binding stoichiometry) (SaHPPK [7]; ITC, 298 K, ligand alone): 0.98±0.11 | TΔS (SaHPPK [7]; ITC, 298 K, ligand alone): -0.3 ± 0.5 kcal/mol | ΔG (SaHPPK [7]; ITC, 298 K, ligand alone): -6.2 ± 0.1 kcal/mol | ΔH (SaHPPK [7]; ITC, 298 K, ligand alone): -6.5 ± 0.4 kcal/mol | Kd (SaHPPK [7]; [10]): 31 ± 4.5 µM | binding by ITC (SaHPPK [7]; [14]): no significant binding

Nc1nc2c(c(=O)[nH]1)N=C(CO)CN2 [HMDP, 6-hydroxymethyl-7,8-dihydropterin]
Kd (SaHPPK [5]; K d SPR, SPR steady-state, 293 K, in the presence of AMPCPP): 3.6 ± 0.3 µM | Kd (SaHPPK [5]; K d SPR, SPR steady-state, 293 K, ligand alone): ~100 µM and 100 µM | Kd (EcHPPK; in the presence of Mg2+ and AMPCPP, read-out: binding affinity of EcHPPK): 0.036 to 0.17 µM | N (binding stoichiometry) (SaHPPK [7]; [9]): 1.23±0.15 | TΔS (SaHPPK [7]; [9]): -3.1 ± 0.9 kcal/mol | ΔG (SaHPPK [7]; [9]): -7.4 ± 0.2 kcal/mol | ΔH (SaHPPK [7]; [9]): -10.5 ± 1.0 kcal/mol | Kd (SaHPPK [7]; K d ITC, ITC, 298 K, in the presence of 1 mM AMPCPP): ~4 µM and 4 µM | binding by ITC (SaHPPK [7]; in the presence of the inhibitor 8-mercaptoguanine): could not be detected | Km (E. coli HPPK): 0.7 to 1.6 µM

Nc1nc2nc[nH]c2c(=O)[nH]1 [guanine]
affinity by SPR (SaHPPK [5]; data not shown): undetectable

Mg-GTP
affinity of EcHPPK, fold less than for Mg-ATP (EcHPPK): 260 fold
